Reference: patent US5866596A, “3,4-diaryloxazolone derivatives, their methods of preparation and their uses in therapeutics” (Laboratories UPSA, priority 1996, dated 1999)

Test system: oedema with carrageenan
Experiment: Anti-inflammatory activity: test of oedema with carrageenan
Assay type: in vivo
Details: Rattus norvegicus, 30 mg/kg oral, rats, after 3 hours, n=6 per dose, read-out: Anti-inflammatory activity, % inhibition (volume of the oedema)
Method: (§1) The anti-inflammatory activity of the compounds of the Examples has been evaluated according to the method of oedema with carrageenan and the analgesic activity has been evaluated according to the method of arthritis with kaolin.
The anti-inflammatory activity is evaluated in rats by the test of oedema with carrageenan. The product is administered orally at a rate of 2.5 ml/100 g (n=6 animals per dose) 2 hours 30 minutes after a water overload taken orally (2.5 ml/100 g). One hour after administration of the product, the oedema is induced by plantar subcutaneous injection of aqueous 2% carrageenan solution. The percentage inhibition of the volume of the oedema is calculated after 3 hours by measuring the volume of the paw with the aid of a mercury plethysmometer.

| Structure (SMILES) | inhibition in vivo at 30 mg/kg |
| --- | --- |
| CS(=O)(=O)c1ccc(-c2coc(=O)n2-c2cccc(Cl)c2)cc1 [Example 19, 3-(3-chlorophenyl)-4-(4-methanesulfonylphenyl)-3H-oxazol-2-one] | 37% |
| CS(=O)(=O)c1ccc(-c2coc(=O)n2-c2ccc(Cl)c(Cl)c2)cc1 [Example 20, 3-(3,4-dichlorophenyl)-4-(4-methanesulfonylphenyl)-3H-oxazol-2-one] | 48% |
| CS(=O)(=O)c1ccc(-c2coc(=O)n2-c2cccc(F)c2)cc1 [Example 21, 3-(3-fluorophenyl)-4-(4-methanesulfonylphenyl)-3H-oxazol-2-one] | 55% |
| Cc1ccc(-n2c(-c3ccc(S(C)(=O)=O)cc3)coc2=O)cc1 [Example 22, 3-(4-methylphenyl)-4-(4-methanesulfonylphenyl)-3H-oxazol-2-one] | 42% |

Test system: arthritis with kaolin (pain response)
Experiment: Analgesic activity: test of arthritis with kaolin
Assay type: in vivo
Details: 30 mg/kg oral, rats, 5 hours 30 minutes after administration, n=10 per dose
Method: as §1
The analgesic activity is evaluated in rats by the test of arthritis with kaolin. Thirty minutes after intra-articular administration of an aqueous 10% suspension of kaolin, the product is administered orally at a rate of 1 ml/100 g (n=10 animals per dose). The percentage inhibition of the animal's pain response (by rating the way it walks) is calculated 5 hours 30 minutes after administration of the product.

| Structure (SMILES) | Analgesic activity, % inhibition (pain response) |
| --- | --- |
| CS(=O)(=O)c1ccc(-c2coc(=O)n2-c2cccc(Cl)c2)cc1 [Example 19, 3-(3-chlorophenyl)-4-(4-methanesulfonylphenyl)-3H-oxazol-2-one] | 60% |
| CS(=O)(=O)c1ccc(-c2coc(=O)n2-c2ccc(Cl)c(Cl)c2)cc1 [Example 20, 3-(3,4-dichlorophenyl)-4-(4-methanesulfonylphenyl)-3H-oxazol-2-one] | 75% |

Target: T1, COX-2 (purified enzyme from ewe placenta) (Ovis aries, UniProt P79208)
T1 construct: purified enzyme from ewe placenta; from tissue; host or cells: ewe placenta
T1 sequence (P79208 17-603): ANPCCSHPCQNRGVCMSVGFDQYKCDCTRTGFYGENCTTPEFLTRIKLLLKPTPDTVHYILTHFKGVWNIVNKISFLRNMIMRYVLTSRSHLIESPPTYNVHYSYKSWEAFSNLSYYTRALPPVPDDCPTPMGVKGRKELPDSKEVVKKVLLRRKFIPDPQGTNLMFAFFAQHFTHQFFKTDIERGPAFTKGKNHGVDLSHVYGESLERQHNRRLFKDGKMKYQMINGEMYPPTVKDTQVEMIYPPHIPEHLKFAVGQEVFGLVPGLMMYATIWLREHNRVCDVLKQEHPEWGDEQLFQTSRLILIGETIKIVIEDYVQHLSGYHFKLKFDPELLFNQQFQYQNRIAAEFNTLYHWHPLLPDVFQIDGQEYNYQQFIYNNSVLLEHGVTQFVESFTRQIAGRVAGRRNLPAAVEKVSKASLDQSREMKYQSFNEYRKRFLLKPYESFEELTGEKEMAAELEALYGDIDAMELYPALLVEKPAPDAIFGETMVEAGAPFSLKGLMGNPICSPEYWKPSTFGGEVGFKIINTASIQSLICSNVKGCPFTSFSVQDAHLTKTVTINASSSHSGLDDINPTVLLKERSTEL
Experiment: Inhibition of COX-2 enzymatic activity (PGE2 by EIA)
Assay type: biochemical
Details: 10^-5 M; arachidonic acid 4 μM; mean of 4 determinations
Method: (§2) Arachidonic acid (6 μM for COX-1, 4 μM for COX-2) is added to the reaction medium and incubation is carried out for 5 minutes at 25° C. When incubation has ended, the enzymatic reaction is stopped by the addition of 1N HCl and the PGE2 produced is determined by EIA. The results are expressed as the percentage inhibition of the COX-1 and COX-2 enzymatic activities and correspond to mean (±) standard deviations from the average of 4 determinations.

| Structure (SMILES) | inhibition at 10 µM |
| --- | --- |
| CS(=O)(=O)c1ccc(-c2coc(=O)n2-c2cccc(Cl)c2)cc1 [Example 19, 3-(3-chlorophenyl)-4-(4-methanesulfonylphenyl)-3H-oxazol-2-one] | 87% |
| CS(=O)(=O)c1ccc(-c2coc(=O)n2-c2ccc(Cl)c(Cl)c2)cc1 [Example 20, 3-(3,4-dichlorophenyl)-4-(4-methanesulfonylphenyl)-3H-oxazol-2-one] | 94% |

More lines, now with the values ahead:

| inhibition at 10 µM | Structure (SMILES) |
| --- | --- |
| 76% | CS(=O)(=O)c1ccc(-c2coc(=O)n2-c2cccc(F)c2)cc1 [Example 21, 3-(3-fluorophenyl)-4-(4-methanesulfonylphenyl)-3H-oxazol-2-one] |
| 88% | Cc1ccc(-n2c(-c3ccc(S(C)(=O)=O)cc3)coc2=O)cc1 [Example 22, 3-(4-methylphenyl)-4-(4-methanesulfonylphenyl)-3H-oxazol-2-one] |

Same assay, conditions: 10^-7 M; arachidonic acid 4 μM; mean of 4 determinations

| Structure (SMILES) | inhibition at 0.1 µM |
| --- | --- |
| CS(=O)(=O)c1ccc(-c2coc(=O)n2-c2cccc(Cl)c2)cc1 [Example 19, 3-(3-chlorophenyl)-4-(4-methanesulfonylphenyl)-3H-oxazol-2-one] | 18% |
| CS(=O)(=O)c1ccc(-c2coc(=O)n2-c2ccc(Cl)c(Cl)c2)cc1 [Example 20, 3-(3,4-dichlorophenyl)-4-(4-methanesulfonylphenyl)-3H-oxazol-2-one] | 26% |

The remaining lines, values ahead:

| inhibition at 0.1 µM | Structure (SMILES) |
| --- | --- |
| 11% | CS(=O)(=O)c1ccc(-c2coc(=O)n2-c2cccc(F)c2)cc1 [Example 21, 3-(3-fluorophenyl)-4-(4-methanesulfonylphenyl)-3H-oxazol-2-one] |
| 12% | Cc1ccc(-n2c(-c3ccc(S(C)(=O)=O)cc3)coc2=O)cc1 [Example 22, 3-(4-methylphenyl)-4-(4-methanesulfonylphenyl)-3H-oxazol-2-one] |

Target: T2, COX-1 (purified enzyme from ram seminal vesicles) (Ovis aries, UniProt P05979)
T2 construct: purified enzyme from ram seminal vesicles; from tissue; host or cells: ram seminal vesicles
T2 sequence (P05979 25-600): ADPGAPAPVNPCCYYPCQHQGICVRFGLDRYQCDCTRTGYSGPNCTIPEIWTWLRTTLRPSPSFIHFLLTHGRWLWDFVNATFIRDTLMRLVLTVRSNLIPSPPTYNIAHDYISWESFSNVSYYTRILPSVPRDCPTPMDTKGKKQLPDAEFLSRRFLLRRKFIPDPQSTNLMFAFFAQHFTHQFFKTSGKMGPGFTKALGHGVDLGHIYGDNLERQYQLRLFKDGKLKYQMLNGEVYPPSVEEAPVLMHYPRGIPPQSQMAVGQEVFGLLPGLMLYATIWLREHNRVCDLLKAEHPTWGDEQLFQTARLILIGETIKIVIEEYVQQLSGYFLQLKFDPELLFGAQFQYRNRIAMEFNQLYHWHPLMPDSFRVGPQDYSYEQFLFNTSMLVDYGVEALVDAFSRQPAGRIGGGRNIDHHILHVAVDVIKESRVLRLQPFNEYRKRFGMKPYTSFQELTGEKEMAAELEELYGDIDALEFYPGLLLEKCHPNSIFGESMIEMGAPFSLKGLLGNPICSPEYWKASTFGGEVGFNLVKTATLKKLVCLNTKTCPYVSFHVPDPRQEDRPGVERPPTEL
Experiment: Inhibition of COX-1 enzymatic activity (PGE2 by EIA)
Assay type: biochemical
Details: 10^-5 M; arachidonic acid 6 μM; mean of 4 determinations
Method: as §2

| inhibition at 10 µM | Structure (SMILES) |
| --- | --- |
| 0% | CS(=O)(=O)c1ccc(-c2coc(=O)n2-c2cccc(Cl)c2)cc1 [Example 19, 3-(3-chlorophenyl)-4-(4-methanesulfonylphenyl)-3H-oxazol-2-one] |
| 0% | CS(=O)(=O)c1ccc(-c2coc(=O)n2-c2ccc(Cl)c(Cl)c2)cc1 [Example 20, 3-(3,4-dichlorophenyl)-4-(4-methanesulfonylphenyl)-3H-oxazol-2-one] |
| 0% | CS(=O)(=O)c1ccc(-c2coc(=O)n2-c2cccc(F)c2)cc1 [Example 21, 3-(3-fluorophenyl)-4-(4-methanesulfonylphenyl)-3H-oxazol-2-one] |

Same assay, conditions: 10^-7 M; arachidonic acid 6 μM; mean of 4 determinations

| inhibition at 0.1 µM | Structure (SMILES) |
| --- | --- |
| 0% | CS(=O)(=O)c1ccc(-c2coc(=O)n2-c2cccc(Cl)c2)cc1 [Example 19, 3-(3-chlorophenyl)-4-(4-methanesulfonylphenyl)-3H-oxazol-2-one] |
| 0% | CS(=O)(=O)c1ccc(-c2coc(=O)n2-c2ccc(Cl)c(Cl)c2)cc1 [Example 20, 3-(3,4-dichlorophenyl)-4-(4-methanesulfonylphenyl)-3H-oxazol-2-one] |
| 0% | CS(=O)(=O)c1ccc(-c2coc(=O)n2-c2cccc(F)c2)cc1 [Example 21, 3-(3-fluorophenyl)-4-(4-methanesulfonylphenyl)-3H-oxazol-2-one] |

Test system: not listed separately
Experiment: Gastric tolerance (ulcerogenic dose)
Design: species or system Charles River rats strain CD
Details: rat, in vivo; rats, oral, 6 hours after administration; dose inducing 4 to 5 lesions; read-out: UD50 (confidence limit), 50% ulcerogenic dose
Method: The gastic tolerance study is carried out in Charles River rats strain CD weighing 110 to 150 g. The animals are placed on a water diet 24 hours before administration of the product or the vehicle alone, via the oral route (1 ml/100 g) (n=6 animals per dose). Six hours after administration,the animals are sacrificed and the stomachs are removed and opened along the greater curvature. The number of haemorrhagic spots and lines per stomach identified macroscopically permits establishing an ulceration index (0: no lesion, 1: 1 to 2 lesions, 2: 3 to 4 lesions, 3: 5 to 8 lesions, 4: 9 to 16 lesions, 5: more than 17 lesions) and estimating the 50% ulcerogenic dose (UD50 =dose expressed in mg/kg inducing 4 to 5 lesions).

| Structure (SMILES) | TD50 at 6 h |
| --- | --- |
| COc1ccc2c(c1)c(CC(=O)O)c(C)n2C(=O)c1ccc(Cl)cc1 [indomethacin, reference compound] | 8.3 mg/kg |
